Assays:
[1] = Evaluation of hygroscopicity (storage 1 week; water content, powder X-ray diffraction); assay type: physicochemical; details: for change in appearance and crystal transition / change of water content / hygroscopicity: 25° C., relative humidity 75% or 93%; for crystal form: powder X-ray diffraction
Protocol: The hygroscopicity and solid stability of a crystalline form of the mesylate of the carboxamide (Form A) (obtained in Example 5), a crystalline form of the mesylate of the carboxamide (Form C) (obtained in Example 7), a crystalline form of the acetic acid solvate of the mesylate of the carboxamide (Form I) (obtained in Example 10) and a crystalline form of the esylate of the carboxamide (Form β) (obtained in Example 12) were measured under the following conditions.
1. Storage Conditions for the Hygroscopicity Test (Period: 1 Week)
a-1. 25° C., relative humidity 75%
b-1. 25° C., relative humidity 93%
Analysis was carried out according to “X-Ray Powder Diffraction Method” described in Japanese Pharmacopoeia 14th Edition, General Tests (B-614 to 619) under the following measurement conditions. • Apparatus: RINT-2000 (manufacture by Rigaku Denki K. K.) • X-ray: CuKα ray • Monochrometer: curved crystal monochrometer • Goniometer: vertical goniometer • Counter: scintillation counter • Applied voltage: 40 kV • Charging current: 200 mA • Scan speed: 5°/min • Scan axis: 2θ/θ • Scan range; 2θ+5° to 40° • Divergent slit: 0.5° • Scattering slit: 0.5° • Receiving slit: 0.3 mm 5. Measurement of Water Content
Measurement was carried out according to the Water Determination as described in Japanese Pharmacopoeia 14th Edition, General Tests (B-318 to 331) using 6 to 10 mg of each crystal.

[2] = Evaluation of solid stability (storage 2 weeks; total impurity by HPLC, water content, powder X-ray diffraction); assay type: physicochemical; details: for changes in water content and appearance, crystal transition: all storage conditions
Protocol: 2. Storage Conditions for the Solid Stability Test (Period: 2 Weeks) a-2. −20° C. (well closed) b-2. 25° C., light irradiation (1000 1×; shading with aluminum foil, well closed) c-2. 25° C., light irradiation (1000 1×; well closed) […]
e-2. 60° C. (well closed except the following case: slightly open in the case of a crystalline form of the acetic acid solvate of the mesylate (Form I))
3. Method for Measuring the Impurity Amount by HPLC
After storage, the sample solution was prepared by adding a mixed solvent of water and methanol (3:1) to each crystal at 0.1 mg/mL as final concentration.
Tests were conducted by the HPLC method for these sample solutions under the measurement conditions described below, and the eluted peak areas were measured to determine the total impurity amount by the relative area method (impurities of 0.05% or more were counted).
(Formula for Calculating Total Impurity Amount)
• Individual impurity amount (%)=(the peak area for the individual impurity)×100/{(the peak area for carboxamide)+(sum of the peak areas for impurities)} • Total impurity amount (%)=sum of individual impurity amounts (HPLC Measurement Conditions) • Column: Mightysil RP-18 GP (Kanto Kagaku; inner diameter 4.6 mm, column length 150 mm, particle size 3 μm) • Column temperature: constant temperature in vicinity of 40° C. • Flow rate: 1.0 mL/min • Mobile phase:
Solution B: CH3CN:H2O:HClO4=900:100:1 (v/v/v) • Gradient conditions […]
• Injection amount: 10 μL • Detection: ultraviolet absorbance photometer (wavelength: 252 nm) • Temperature of auto sampler: constant temperature in vicinity of 10° C. 4. Powder X-ray Diffraction […]
Measurement of Water Content

[3] = Test for measuring dissolution rate (rotating disk method); assay type: physicochemical; details: 2nd fluid pH 6.8, 37° C., 50 rpm
Protocol: The dissolution rates of the following crystals were measured under the conditions described below by the rotating disk method (see, J. H. Woods et al., J. Pharm. Soc., 54, 1068 (1955)): a crystalline form of the free carboxamide (obtained in Preparation Example 1), a crystalline form of the hydrochloride of the carboxamide (obtained in Example 1), a crystalline form of the hydrobromide of the carboxamide (obtained in Example 2), a crystalline form of the methanesulfonate (hereunder, referred to as “mesylate”) of the carboxamide (Form A) (obtained in Example 5), a crystalline form of the mesylate of the carboxamide (Form C) (obtained in Example 7) and a crystalline form of the ethanesulfonate (hereunder, referred to as “esylate”) (Form β) (obtained in Example 12). The dissolution rates were calculated based on a range in which linearity was maintained in the relation between concentration and time at the initial stage of dissolution.
(Rotating Disk Method Conditions)
• Solvent: “2nd fluid” (pH 6.8, 500 mL) as described in Japanese Pharmacopoeia 14th Edition, General Tests (disintegration test) • Temperature: 37° C. • Disk rotation speed: 50 rpm • Area of powder contacting with solvent on disk: 1 cm^2 • Sampling amount: approx. 1 mL (HPLC Conditions) • Column: Cadenza CD-18 (Imtakt Corporation; inner diameter 4.6 mm, Column length 100 mm, particle size 3 μm) • Column temperature: 40° C. • Flow rate: 1.0 mL/min • Mobile phase:
Concentration of solution B: 20% • Injection amount: 100 μL • Detection: ultraviolet absorbance photometer (wavelength: 252 nm) • Temperature of auto sampler: 25° C. [Results]

[4] = Study of pharmacokinetics in beagle dogs; assay type: in vivo; details: mean ± standard error
Protocol: A crystalline form of the free from of the carboxamide (obtained in Preparation Example 1), a crystalline form of the hydrobromide of the carboxamide (obtained in Example 2) and a crystalline form of the mesylate of the carboxamide (Form A) (obtained in Example 5) were grounded in a mortar, encapsulated in a gelatin capsule, and then administered orally to beagle dogs (n=3). After administration, 10 mL of water was further administered orally. The dose was set such that it was equivalent to 3 mg/kg as a free form, and the beagle dogs were fasted from the day before administration, and fed again 8 hours after the administration.
To calculate bioavailability (BA), a test was conducted using a single intravenous administration. More specifically, a crystalline form of the free from of the carboxamide was dissolved in a solution containing 10% dimethyl sulfoxide, 50% polyethylene glycol 400 and 40% 0.1 M aqueous solution of hydrochloric acid and administered intravenously through cephalic vein of the foreleg.
The plasma concentration of the carboxamide was measured by HPLC-UV method after sampling blood from cephalic vein of the foreleg. Based on the concentration, pharmacokinetic parameters were calculated for each individual by the moment method. Further, based on the calculated parameters, the mean value and standard error thereof were calculated.

[5] = a-1: 25° C., relative humidity 75%, 1 week
[6] = b-1: 25° C., relative humidity 93%, 1 week
[7] = a-2: −20° C. (well closed), 2 weeks
[8] = b-2: 25° C., light irradiation 1000 lx, shading with aluminum foil, well closed, 2 weeks
[9] = c-2: 25° C., light irradiation 1000 lx, well closed, 2 weeks
[10] = d-2: 40° C., relative humidity 75%, 2 weeks
[11] = e-2: 60° C., 2 weeks (well closed; slightly open for Form I)
[12] = solid stability test, initial, HPLC relative area
[13] = beagle dogs n=3, oral, gelatin capsule, 3 mg/kg as free form, fasted

Row | change of water content ([1]; 1 week) | water content [1, 5] | water content [1, 6] | water content ([1]; hygroscopicity test, initial) | total impurity [2, 7] | water content [2, 7] | total impurity [2, 8] | water content [2, 8] | total impurity [2, 9] | water content [2, 9] | total impurity [2, 10] | water content [2, 10] | total impurity [2, 11] | water content [2, 11] | water content ([2]; solid stability test, initial) | total impurity [2, 12] | hygroscopicity ([1]; 1 week) | dissolution rate [3] | SMILES | change in appearance and crystal transition ([1]; 1 week) | changes in water content and appearance, crystal transition ([2]; solid stability test, 2 weeks) | further results
1 | a decrease in water content was observed | 0.6% | 0.8% | 2.9% | 0.67% | 3.1% | 0.66% | 3.1% | 0.87% | 2.9% | 0.61% | 0.9% | 0.84% | 0.3% | 2.9% | 0.62% | – | – | CC(=O)O.COc1cc2nccc(Oc3ccc(NC(=O)NC4CC4)c(Cl)c3)c2cc1C(N)=O.CS(=O)(=O)O [Acetic Acid Solvate of the Methanesulfonate of 4-(3-chloro-4-(cyclopropylaminocarbonyl)aminophenoxy)-7-methoxy-6-quinolinecarboxamide] | transition to a crystalline form of the mesylate (Form C) | – | crystal transition ([2]; 40° C. and relative humidity of 75%, 2 weeks): transition to a crystalline form of the mesylate (Form C); crystal transition ([2]; 60° C. in a slightly opened container, 2 weeks): transition to a crystalline form of the mesylate (Form B); crystal transition, changes in total impurity amount, water content and appearance ([2]; stored in a well closed container, 2 weeks): neither crystal transition nor remarkable changes in total impurity amount, water content and appearance were observed
2 | did not change remarkably | 1.7% | 1.4% | 1.7% | 0.48% | 2.0% | 0.46% | 2.5% | 0.49% | 2.1% | 0.48% | 2.0% | 0.51% | 2.2% | 1.7% | 0.55% | not observed | 18.5 μg/min/cm^2 | CCS(=O)(=O)O.COc1cc2nccc(Oc3ccc(NC(=O)NC4CC4)c(Cl)c3)c2cc1C(N)=O [esylate (Form β), Ethanesulfonate of 4-(3-chloro-4-(cyclopropylaminocarbonyl)aminophenoxy)-7-methoxy-6-quinolinecarboxamide] | Neither remarkable change in appearance nor crystal transition was observed | neither remarkable changes in water content and appearance nor crystal transition was observed | crystal form [1, 5]: β; crystal form [1, 6]: β; crystal form ([1]; hygroscopicity test, initial): β; crystal form [2, 7]: β; crystal form [2, 8]: β; crystal form [2, 9]: β; crystal form [2, 10]: β; crystal form [2, 11]: β; crystal form ([2]; solid stability test, initial, powder X-ray diffraction): β
3 | – | – | – | – | – | – | – | – | – | – | – | – | – | – | – | – | – | 8.7 μg/min/cm^2 | Br.COc1cc2nccc(Oc3ccc(NC(=O)NC4CC4)c(Cl)c3)c2cc1C(N)=O [hydrobromide, Hydrobromide of 4-(3-chloro-4-(cyclopropylaminocarbonyl)aminophenoxy)-7-methoxy-6-quinolinecarboxamide] | – | – | BA ([4]; beagle dogs n=3, oral 3 mg/kg as free form vs single intravenous administration of free form): 73.5 ± 2.3%; AUC0-24hr [4, 13]: 4800 ± 200 ng·h/mL; Maximum plasma concentration (Cmax) [4, 13]: 480.4 ± 31.4 ng/mL; plasma concentration after 24 hours (C24hr) [4, 13]: 100.5 ± 81.7 ng/mL; time to reach maximum plasma concentration (Tmax) [4, 13]: 2.67 ± 0.7 h
4 | – | – | – | – | – | – | – | – | – | – | – | – | – | – | – | – | – | 4.7 μg/min/cm^2 | COc1cc2nccc(Oc3ccc(NC(=O)NC4CC4)c(Cl)c3)c2cc1C(N)=O.Cl [hydrochloride, Hydrochloride of 4-(3-chloro-4-(cyclopropylaminocarbonyl)aminophenoxy)-7-methoxy-6-quinolinecarboxamide] | – | – | –
5 | did not change remarkably | 0.6% | 0.7% | 0.7% | 2.10% | 0.7% | 2.09% | 0.8% | 2.22% | 0.7% | 2.06% | 0.6% | 2.18% | 0.5% | 0.7% | 2.11% | not observed | 15.5 μg/min/cm^2 | COc1cc2nccc(Oc3ccc(NC(=O)NC4CC4)c(Cl)c3)c2cc1C(N)=O.CS(=O)(=O)O [mesylate (Form C), Methanesulfonate of 4-(3-chloro-4-(cyclopropylaminocarbonyl)aminophenoxy)-7-methoxy-6-quinolinecarboxamide] | Neither remarkable change in appearance nor crystal transition was observed | neither remarkable changes in water content and appearance nor crystal transition was observed | –
